Source: US9765037B2, “Compositions and methods for treating toxoplasmosis, cryptosporidiosis, and other apicomplexan protozoan related diseases” (University of Washington Through its Center for …, priority 2010, dated 2017)
Like-named read-outs stand apart in the source and are kept apart here.

Tests used:
[1] = target: CpCDPK1 (Cryptosporidium parvum (strain Iowa II), UniProt A3FQ16); assay: biochemical; format: biochemical
[2] = target: PfCDPK4 (Plasmodium falciparum (isolate 3D7), UniProt Q8IBS5); assay: biochemical; conditions: for inhibition at 3 µM: read-out: PfCDPK4 (% inhibition @ 3 uM)
[3] = target: PfCDPK1 (Plasmodium falciparum (isolate 3D7), UniProt P62344); assay: biochemical; conditions: for inhibition at 3 µM: read-out: PfCDPK1 (% inhibition @ 3 uM)
[4] = target: TgCDPK1 (Toxoplasma gondii, UniProt Q9BJF5); format: biochemical
[5] = Table 8, read-out: IC50 (μM) CpCDPK1

CpCDPK1, sequence (A3FQ16 1-538): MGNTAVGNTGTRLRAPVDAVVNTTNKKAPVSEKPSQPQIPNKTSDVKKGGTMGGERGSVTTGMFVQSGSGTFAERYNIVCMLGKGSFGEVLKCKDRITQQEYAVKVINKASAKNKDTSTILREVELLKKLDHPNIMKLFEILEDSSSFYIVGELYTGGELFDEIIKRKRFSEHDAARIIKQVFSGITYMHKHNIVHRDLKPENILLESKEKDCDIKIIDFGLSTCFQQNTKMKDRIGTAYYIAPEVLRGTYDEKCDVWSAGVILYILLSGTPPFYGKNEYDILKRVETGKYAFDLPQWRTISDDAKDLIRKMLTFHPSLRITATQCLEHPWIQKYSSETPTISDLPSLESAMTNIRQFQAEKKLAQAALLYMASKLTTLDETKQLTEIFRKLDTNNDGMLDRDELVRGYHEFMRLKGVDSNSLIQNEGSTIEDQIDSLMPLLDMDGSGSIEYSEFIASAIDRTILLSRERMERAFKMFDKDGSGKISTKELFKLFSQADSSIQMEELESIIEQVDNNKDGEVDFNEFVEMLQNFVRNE
TgCDPK1, sequence (Q9BJF5 1-507): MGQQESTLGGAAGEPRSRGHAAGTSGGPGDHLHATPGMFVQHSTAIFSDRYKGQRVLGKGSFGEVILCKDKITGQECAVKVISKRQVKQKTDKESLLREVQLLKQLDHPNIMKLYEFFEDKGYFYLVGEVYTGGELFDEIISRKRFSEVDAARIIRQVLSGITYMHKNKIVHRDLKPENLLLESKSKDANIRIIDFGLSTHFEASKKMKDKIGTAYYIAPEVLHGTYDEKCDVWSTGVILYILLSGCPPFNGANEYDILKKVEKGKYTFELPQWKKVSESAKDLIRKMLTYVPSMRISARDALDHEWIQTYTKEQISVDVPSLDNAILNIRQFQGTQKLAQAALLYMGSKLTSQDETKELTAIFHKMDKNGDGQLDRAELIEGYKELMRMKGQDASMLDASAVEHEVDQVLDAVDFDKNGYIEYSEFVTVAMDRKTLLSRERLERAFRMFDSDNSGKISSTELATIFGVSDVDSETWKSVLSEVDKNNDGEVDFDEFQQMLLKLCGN

Structure (SMILES) | IC50 ([4]; read-out: IC50 (μM) TgCDPK1) | IC50 [1, 5] | EC50 [2] | EC50 [3] | further results
CSc1cccc(-c2nn(C(C)C)c3ncnc(N)c23)c1 [Compound 7ab, 1-isopropyl-3-(3-(methylthio)phenyl)-1H-pyrazolo[3,4-d]pyrimidin-4-amine] | 0.056 µM | – | – | – | IC50 ([1]; read-out: IC50 (μM) CpCDPK1): 0.121 µM; inhibition at 3 µM [2]: 79%; inhibition at 3 µM [3]: 85%
COc1ccc(-c2nn(C(C)C)c3ncnc(N)c23)cc1OC [Compound 7k, 3-(3,4-dimethoxyphenyl)-1-isopropyl-1H-pyrazolo[3,4-d]pyrimidin-4-amine] | – | 0.173 µM | > 3000 nM | 1360 nM | IC50 ([1]; read-out: CpCDPK1 IC50): 0.17 µM; IC50 ([4]; read-out: TgCDPK1 IC50): 0.037 µM
COc1cc(-c2nn(C(C)C)c3ncnc(N)c23)cc(OC)c1OC [Compound 7l, 1-isopropyl-3-(3,4,5-trimethoxyphenyl)-1H-pyrazolo[3,4-d]pyrimidin-4-amine] | – | – | – | – | selectivity TgCDPK1 versus CpCDPK1 (in words) [1]: equipotent or slightly selective for CpCDPK1; IC50 ([1]; read-out: CpCDPK1 IC50): 0.093 µM; inhibition at 3 µM [2]: 31%; inhibition at 3 µM [3]: 85%; IC50 ([4]; read-out: TgCDPK1 IC50): 0.42 µM
COc1cc2ccccc2cc1-c1nn(C(C)C)c2ncnc(N)c12 [Compound 7s, 1-isopropyl-3-(3-methoxynaphthalen-2-yl)-1H-pyrazolo[3,4-d]pyrimidin-4-amine] | 0.863 µM | 0.591 µM | – | – | IC50 ([1]; read-out: CpCDPK1 IC50): 0.6 µM; IC50 ([4]; read-out: TgCDPK1 IC50): 0.9 µM
CC(C)n1nc(-c2ccc3c(c2)OCO3)c2c(N)ncnc21 [Compound 7u, 3-(benzo[d][1,3]dioxol-5-yl)-1-isopropyl-1H-pyrazolo[3,4-d]pyrimidin-4-amine] | 0.045 µM | – | 1100 nM | 422 nM | IC50 ([1]; read-out: IC50 (μM) CpCDPK1): 0.312 µM
CC(C)n1nc(-c2ccc3c(c2)CCCO3)c2c(N)ncnc21 [Compound 7w, 3-(chroman-6-yl)-1-isopropyl-1H-pyrazolo[3,4-d]pyrimidin-4-amine] | 0.017 µM | – | – | – | IC50 ([1]; read-out: CpCDPK1 IC50): 0.11 µM
CC(C)n1nc(-c2cccc3c2sc2ccccc23)c2c(N)ncnc21 [Compound 7x, 3-(dibenzo[b,d]thiophen-4-yl)-1-isopropyl-1H-pyrazolo[3,4-d]pyrimidin-4-amine] | > 3 µM | > 3 µM | – | – | IC50 ([1]; Table 4, average of three assays ± (SEM), read-out: CpCDPK1 IC50): > 3 µM; IC50 ([4]; read-out: TgCDPK1 IC50): > 3 µM
CC(C)c1nc(-c2ccc3ccccc3c2)c2c(N)nccn12 [Compound 8, 3-isopropyl-1-(naphthalen-2-yl)imidazo[1,5-a]pyrazin-8-amine] | 0.0048 µM | 0.0078 µM | 91 nM | 156 nM | –
Nc1ncnc2c1c(Cc1cccc3ccccc13)nn2C1CCCC1 [Compound 13, 1-cyclopentyl-3-(naphthalen-1-ylmethyl)-1H-pyrazolo[3,4-d]pyrimidin-4-amine] | 0.553 µM | 0.894 µM | – | – | –
CC(C)n1nc(Cc2ccc3ccccc3c2)c2c(N)ncnc21 [Compound 14, 1-isopropyl-3-(naphthalen-2-ylmethyl)-1H-pyrazolo[3,4-d]pyrimidin-4-amine] | 0.627 µM | 0.953 µM | – | – | –
Nc1ncnc2c1c(Cc1cccc3ccccc13)nn2C1CCOCC1 [Compound 15, 3-(naphthalen-1-ylmethyl)-1-(tetrahydro-2H-pyran-4-yl)-1H-pyrazolo[3,4-d]pyrimidin-4-amine] | 0.149 µM | 0.265 µM | – | – | –
CC(C)n1nc(-c2cccnc2)c2c(N)ncnc21 [Compound 16, 1-isopropyl-3-(pyridin-3-yl)-1H-pyrazolo[3,4-d]pyrimidin-4-amine] | 0.961 µM | > 3 µM | – | – | –
CC(C)n1nc(-c2cncnc2)c2c(N)ncnc21 [Compound 18, 1-isopropyl-3-(pyrimidin-5-yl)-1H-pyrazolo[3,4-d]pyrimidin-4-amine] | > 3 µM | > 3 µM | – | – | –
CC(C)n1nc(-c2ccnc(Cl)c2)c2c(N)ncnc21 [Compound 19, 3-(2-chloropyridin-4-yl)-1-isopropyl-1H-pyrazolo[3,4-d]pyrimidin-4-amine] | 0.0638 µM | 0.37 µM | – | – | –
CC(C)n1nc(-c2cccc(OCc3ccccc3Cl)c2)c2c(N)ncnc21 [Compound 21, 3-(3-(2-chlorobenzyloxy)phenyl)-1-isopropyl-1H-pyrazolo[3,4-d]pyrimidin-4-amine] | > 3 µM | > 3 µM | – | – | –
COc1cc(COc2cccc(-c3nn(C(C)C)c4ncnc(N)c34)c2)cc(OC)c1 [Compound 22, 3-(3-(3,5-dimethoxybenzyloxy)phenyl)-1-isopropyl-1H-pyrazolo[3,4-d]pyrimidin-4-amine] | 1.14 µM | > 3 µM | – | – | –
COc1ccc(-c2nn(C(C)C)c3ncnc(N)c23)cc1OC(C)C [Compound 23, 3-(3-isopropoxy-4-methoxyphenyl)-1-isopropyl-1H-pyrazolo[3,4-d]pyrimidin-4-amine] | > 3 µM | > 3 µM | – | – | –
COc1ccc2[nH]c(-c3nn(C(C)C)c4ncnc(N)c34)cc2c1 [Compound 27, 1-isopropyl-3-(5-methoxy-1H-indol-2-yl)-1H-pyrazolo[3,4-d]pyrimidin-4-amine] | 0.0569 µM | 0.623 µM | > 3000 nM | 879 nM | –
Nc1ncnc2c1c(Cc1cccc3ccccc13)nn2Cc1c[nH]cn1 [Compound 31, 1-((1H-imidazol-4-yl)methyl)-3-(naphthalen-1-ylmethyl)-1H-pyrazolo[3,4-d]pyrimidin-4-amine] | 0.117 µM | 0.0936 µM | – | – | –
CC(C)(C)n1nc(-c2ccc(NC(=O)CCl)cc2)c2c(N)ncnc21 [Compound 58, N-(4-(4-amino-1-tert-butyl-1H-pyrazolo[3,4-d]pyrimidin-3-yl)phenyl)-2-chloroacetamide] | 0.136 µM | 0.588 µM | 2430 nM | 214 nM | –
CC(C)C(=O)Nc1ccc(-c2nn(C(C)(C)C)c3ncnc(N)c23)cc1 [Compound 59, N-(4-(4-amino-1-tert-butyl-1H-pyrazolo[3,4-d]pyrimidin-3-yl)phenyl)isobutyramide] | 0.0997 µM | 0.832 µM | 459 nM | 111 nM | –
CC(C)(C)C(=O)Nc1ccc(-c2nn(C(C)(C)C)c3ncnc(N)c23)cc1 [Compound 60, N-(4-(4-amino-1-tert-butyl-1H-pyrazolo[3,4-d]pyrimidin-3-yl)phenyl)pivalamide] | 0.0666 µM | 0.929 µM | 326 nM | 66.4 nM | –
CCCC(=O)Nc1ccc(-c2nn(C(C)(C)C)c3ncnc(N)c23)cc1 [Compound 61, N-(4-(4-amino-1-tert-butyl-1H-pyrazolo[3,4-d]pyrimidin-3-yl)phenyl)butyramide] | 0.0684 µM | 0.927 µM | 515 nM | 71.4 nM | –
CC(C)CC(=O)Nc1ccc(-c2nn(C(C)(C)C)c3ncnc(N)c23)cc1 [Compound 62, N-(4-(4-amino-1-tert-butyl-1H-pyrazol[3,4-d]pyrimidin-3-yl)phenyl)-3-methylbutanamide] | 0.0409 µM | 0.692 µM | 140 nM | 37.7 nM | –
CC(C)(C)n1nc(-c2ccc(NC(=O)C3CCCC3)cc2)c2c(N)ncnc21 [Compound 63, N-(4-(4-amino-1-tert-butyl-1H-pyrazolo[3,4-d]pyrimidin-3-yl)phenyl)cyclopentanecarboxamide] | 0.0462 µM | 0.417 µM | 136 nM | 11.8 nM | –
